Earlier results as cited in publication PMC9851200, “Multiparameter phenotypic screening for endogenous TFEB and TFE3 translocation identifies novel chemical series modulating lysosome function” (Autophagy, 2022).

Tests used:
Design in all cases: method as in original PKIS2 published data
[1] = biological target: kinases (KINOMEscan panel) (Homo sapiens, UniProt P21860); conditions: ERBB3; Published KINOMEscan; ref original PKIS2 published data; cited from earlier work
[2] = biological target: T1, kinases (KINOMEscan panel) (Homo sapiens, UniProt Q6ZN16); conditions: Published KINOMEscan; ref original PKIS2 published data; cited from earlier work
T1 sequence (Q6ZN16 1-1313): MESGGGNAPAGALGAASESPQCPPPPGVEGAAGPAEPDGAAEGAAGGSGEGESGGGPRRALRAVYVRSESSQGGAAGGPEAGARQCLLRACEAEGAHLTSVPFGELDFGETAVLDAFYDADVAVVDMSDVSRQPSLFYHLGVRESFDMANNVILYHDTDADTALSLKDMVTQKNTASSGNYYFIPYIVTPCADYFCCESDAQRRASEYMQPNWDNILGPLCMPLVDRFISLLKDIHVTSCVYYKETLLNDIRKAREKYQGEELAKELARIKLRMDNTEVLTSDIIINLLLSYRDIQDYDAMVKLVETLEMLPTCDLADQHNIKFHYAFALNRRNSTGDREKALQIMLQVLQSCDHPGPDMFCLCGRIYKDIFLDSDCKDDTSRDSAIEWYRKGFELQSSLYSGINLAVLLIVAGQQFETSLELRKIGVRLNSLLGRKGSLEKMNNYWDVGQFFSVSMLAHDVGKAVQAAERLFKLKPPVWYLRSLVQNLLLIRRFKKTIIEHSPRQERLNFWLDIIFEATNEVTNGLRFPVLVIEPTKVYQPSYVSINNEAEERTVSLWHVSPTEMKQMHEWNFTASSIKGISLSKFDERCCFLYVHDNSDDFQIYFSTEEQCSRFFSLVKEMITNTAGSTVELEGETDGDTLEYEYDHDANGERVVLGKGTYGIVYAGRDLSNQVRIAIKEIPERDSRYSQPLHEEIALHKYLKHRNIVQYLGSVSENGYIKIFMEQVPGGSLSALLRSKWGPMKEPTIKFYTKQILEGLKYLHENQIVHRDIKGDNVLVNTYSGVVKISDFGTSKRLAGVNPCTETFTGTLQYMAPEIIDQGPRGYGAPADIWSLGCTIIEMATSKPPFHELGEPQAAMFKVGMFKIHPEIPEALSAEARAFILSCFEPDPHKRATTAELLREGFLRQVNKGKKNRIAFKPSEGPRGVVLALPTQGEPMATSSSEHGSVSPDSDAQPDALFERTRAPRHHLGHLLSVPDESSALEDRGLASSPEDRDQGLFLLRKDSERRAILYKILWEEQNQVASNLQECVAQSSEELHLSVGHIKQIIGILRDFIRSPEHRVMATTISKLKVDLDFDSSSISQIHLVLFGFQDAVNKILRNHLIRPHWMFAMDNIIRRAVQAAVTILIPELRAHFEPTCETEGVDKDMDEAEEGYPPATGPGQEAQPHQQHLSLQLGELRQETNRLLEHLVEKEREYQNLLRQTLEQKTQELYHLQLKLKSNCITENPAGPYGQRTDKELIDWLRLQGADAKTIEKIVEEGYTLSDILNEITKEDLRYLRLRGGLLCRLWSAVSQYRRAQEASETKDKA

[3] = biological target: kinases (KINOMEscan panel) (Homo sapiens, UniProt Q86UE8); conditions: kinase TLK2; Published KINOMEscan; ref original PKIS2 published data; cited from earlier work
kinases (KINOMEscan panel) (Homo sapiens, UniProt Q86UE8), sequence (Q86UE8 whole entry): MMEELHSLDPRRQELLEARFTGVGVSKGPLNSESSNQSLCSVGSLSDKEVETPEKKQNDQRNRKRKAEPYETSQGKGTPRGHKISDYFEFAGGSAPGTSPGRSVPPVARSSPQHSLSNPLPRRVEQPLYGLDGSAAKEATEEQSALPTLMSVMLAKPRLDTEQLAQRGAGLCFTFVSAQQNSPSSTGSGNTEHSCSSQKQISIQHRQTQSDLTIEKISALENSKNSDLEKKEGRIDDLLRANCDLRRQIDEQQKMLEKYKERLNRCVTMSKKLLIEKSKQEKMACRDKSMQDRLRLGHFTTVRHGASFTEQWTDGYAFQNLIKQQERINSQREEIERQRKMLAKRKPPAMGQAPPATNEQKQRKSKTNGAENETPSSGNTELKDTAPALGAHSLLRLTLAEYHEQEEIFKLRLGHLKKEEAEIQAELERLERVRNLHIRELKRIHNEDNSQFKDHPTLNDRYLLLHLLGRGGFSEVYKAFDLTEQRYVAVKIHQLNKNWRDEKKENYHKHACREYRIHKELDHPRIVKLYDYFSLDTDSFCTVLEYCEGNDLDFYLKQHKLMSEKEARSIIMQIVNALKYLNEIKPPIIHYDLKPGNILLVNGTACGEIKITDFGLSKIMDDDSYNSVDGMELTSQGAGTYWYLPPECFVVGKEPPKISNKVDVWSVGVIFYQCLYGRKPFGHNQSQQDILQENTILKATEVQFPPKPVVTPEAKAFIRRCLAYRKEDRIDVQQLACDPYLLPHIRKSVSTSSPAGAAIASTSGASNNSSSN

[4] = biological target: T2, kinases (KINOMEscan panel) (Homo sapiens, UniProt Q96L34); conditions: kinase MARK4; Published KINOMEscan; ref original PKIS2 published data; cited from earlier work
T2 sequence (Q96L34 1-752): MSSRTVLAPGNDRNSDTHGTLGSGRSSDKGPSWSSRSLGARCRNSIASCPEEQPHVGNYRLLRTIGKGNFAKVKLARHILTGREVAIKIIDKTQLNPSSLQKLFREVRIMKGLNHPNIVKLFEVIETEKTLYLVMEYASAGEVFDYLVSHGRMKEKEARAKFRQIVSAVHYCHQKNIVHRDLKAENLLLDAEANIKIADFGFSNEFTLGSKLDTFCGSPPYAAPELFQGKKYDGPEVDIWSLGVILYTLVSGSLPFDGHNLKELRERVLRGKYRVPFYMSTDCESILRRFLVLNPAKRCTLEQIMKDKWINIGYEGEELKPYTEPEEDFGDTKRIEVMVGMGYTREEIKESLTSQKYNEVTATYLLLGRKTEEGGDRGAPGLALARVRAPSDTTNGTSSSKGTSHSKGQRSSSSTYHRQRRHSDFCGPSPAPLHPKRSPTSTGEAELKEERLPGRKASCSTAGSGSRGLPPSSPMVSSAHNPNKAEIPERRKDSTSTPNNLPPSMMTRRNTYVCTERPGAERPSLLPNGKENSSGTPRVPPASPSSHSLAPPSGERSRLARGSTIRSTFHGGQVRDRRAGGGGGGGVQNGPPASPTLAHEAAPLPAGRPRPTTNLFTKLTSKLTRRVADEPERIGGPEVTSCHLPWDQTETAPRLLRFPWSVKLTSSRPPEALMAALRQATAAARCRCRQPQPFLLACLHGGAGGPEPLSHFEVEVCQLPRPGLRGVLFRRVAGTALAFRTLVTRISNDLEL

[5] = biological target: T3, kinases (KINOMEscan panel) (Homo sapiens, UniProt Q99640); conditions: kinase PKMYT1; Published KINOMEscan; ref original PKIS2 published data; cited from earlier work
T3 sequence (Q99640 1-499): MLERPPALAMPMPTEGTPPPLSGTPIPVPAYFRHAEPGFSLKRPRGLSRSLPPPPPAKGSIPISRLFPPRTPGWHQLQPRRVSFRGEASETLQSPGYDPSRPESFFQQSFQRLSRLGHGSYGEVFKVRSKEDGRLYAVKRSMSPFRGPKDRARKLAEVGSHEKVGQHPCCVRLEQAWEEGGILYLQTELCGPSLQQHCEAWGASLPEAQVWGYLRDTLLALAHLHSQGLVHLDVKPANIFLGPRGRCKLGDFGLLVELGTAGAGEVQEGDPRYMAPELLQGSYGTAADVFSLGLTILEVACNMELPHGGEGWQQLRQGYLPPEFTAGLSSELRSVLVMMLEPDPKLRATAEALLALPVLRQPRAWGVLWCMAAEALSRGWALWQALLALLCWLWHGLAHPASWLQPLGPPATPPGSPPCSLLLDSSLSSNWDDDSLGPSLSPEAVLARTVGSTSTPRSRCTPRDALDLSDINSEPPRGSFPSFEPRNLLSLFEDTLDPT

kinases (KINOMEscan panel) (Homo sapiens, UniProt P21860), sequence (P21860 20-1342): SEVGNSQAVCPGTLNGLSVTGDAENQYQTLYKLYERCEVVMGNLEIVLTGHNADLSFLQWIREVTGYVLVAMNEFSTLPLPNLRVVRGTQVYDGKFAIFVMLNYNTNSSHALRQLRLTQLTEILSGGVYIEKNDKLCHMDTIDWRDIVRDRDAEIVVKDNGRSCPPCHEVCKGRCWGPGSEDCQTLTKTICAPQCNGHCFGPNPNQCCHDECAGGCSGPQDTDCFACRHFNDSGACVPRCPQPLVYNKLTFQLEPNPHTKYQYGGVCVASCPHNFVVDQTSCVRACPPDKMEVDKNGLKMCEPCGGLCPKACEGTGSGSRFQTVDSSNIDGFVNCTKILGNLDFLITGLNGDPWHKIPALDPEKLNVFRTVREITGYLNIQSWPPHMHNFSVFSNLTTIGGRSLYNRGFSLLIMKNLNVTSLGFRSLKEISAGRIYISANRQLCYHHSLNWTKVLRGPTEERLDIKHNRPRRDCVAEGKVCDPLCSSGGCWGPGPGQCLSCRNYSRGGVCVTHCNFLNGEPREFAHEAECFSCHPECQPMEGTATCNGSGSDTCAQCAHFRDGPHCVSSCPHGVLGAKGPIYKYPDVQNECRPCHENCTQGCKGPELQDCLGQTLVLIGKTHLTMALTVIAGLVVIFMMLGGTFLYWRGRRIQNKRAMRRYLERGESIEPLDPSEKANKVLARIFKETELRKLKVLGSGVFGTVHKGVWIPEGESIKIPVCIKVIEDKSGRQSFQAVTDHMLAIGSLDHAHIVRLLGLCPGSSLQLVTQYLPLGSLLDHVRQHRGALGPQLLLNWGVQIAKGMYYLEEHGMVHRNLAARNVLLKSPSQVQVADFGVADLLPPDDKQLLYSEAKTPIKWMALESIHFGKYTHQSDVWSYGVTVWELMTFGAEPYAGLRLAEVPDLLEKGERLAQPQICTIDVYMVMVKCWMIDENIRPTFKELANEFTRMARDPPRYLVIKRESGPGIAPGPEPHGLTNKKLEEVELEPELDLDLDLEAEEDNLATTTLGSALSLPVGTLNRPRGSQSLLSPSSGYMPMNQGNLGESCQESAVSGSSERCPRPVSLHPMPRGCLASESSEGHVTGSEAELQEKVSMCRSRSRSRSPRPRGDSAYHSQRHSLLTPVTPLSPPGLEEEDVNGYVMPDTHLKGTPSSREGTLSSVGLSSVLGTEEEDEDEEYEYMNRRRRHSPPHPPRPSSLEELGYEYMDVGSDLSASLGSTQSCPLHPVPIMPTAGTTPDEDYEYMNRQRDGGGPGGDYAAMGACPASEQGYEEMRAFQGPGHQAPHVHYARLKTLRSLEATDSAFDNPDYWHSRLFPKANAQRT

## Cc1cccc(-c2nc(Nc3ccncc3)c3ccccc3n2)n1 [NK215]
[1]
  KINOMEscan ERBB3: 43
[2]
  KINOMEscan MAP3K15: 0
[3]
  KINOMEscan TLK2: 0
[4]
  KINOMEscan MARK4: 25
[5]
  KINOMEscan PKMYT1: 0
